The structures appear in SMILES notation.

A short description of data set [1]: Hygroscopicity study by dynamic vapor sorption (DVS). In kind it is physicochemical. As to conditions: 25° C. and 80% RH. On the procedure:
Dynamic Vapor Sorption (DVS) Method of the Present Invention
Instrument Model: […] Advantage-1 dynamic vapor adsorber
Test conditions: Sample (10-30 mg) is placed in the DVS sample tray for testing.
Detailed DVS parameters are as follows:
Balance: dm/dt=0.002%/min (shortest: 10 min, longest: 180 min)
RH (%) test step range: 0-95-0
Hygroscopicity evaluation and classification are as follows:
SMS DVS Advantage Dynamic Vapor Sorption Intrinsic

The next data set concerns SD rats. Kind of data set: Pharmacodynamic study in rats OGTT model. In kind it is in vivo, rat. As to conditions: for OGTT Blood glucose levels AUC0-2 hr: SD rats, mean ± standard error. On the procedure:
SD rats, male, aged 7-8 weeks, purchased from Zhejiang Weitonglihua Experimental Animal Technology Co. Ltd. are maintained in a special pathogen-free environment, with 4 rats in a single ventilation cage. Beddings and water in all cages are sterilized prior to use. All animals can freely obtain a standard certified commercial laboratory diet.
After the animals are adapted to the environment for one week, they are fasted for 16 hours in a metabolic cage, and randomly divided into different groups according to fasting blood glucose and body weight. The animals are administered with a drug or solvent (2 mL/kg), followed by immediately administration of 50% glucose solution (2 g/kg, 4 mL/kg), 2 hours after the administration of glucose solution, the feed is recovered, and blood samples are collected at 0 min, 15 min, 30 min, 45 min, 60 min, and 120 min for blood glucose testing. All values are expressed as average values. Statistical analysis is carried out using Graphpad Prism 6 double factor variance analysis and evaluated with Tukey's multiple comparison tests. P values less than 0.05 are considered to have statistical significance.

A short description of data set [2]: Solid stability test of crystal form A. Format: physicochemical. How it is done: Each part is placed at the bottom of a HPLC vial and spread into a thin layer. Samples placed in a constant temperature and constant humidity box at 60° C./75% RH and samples placed in a 92.5% RH dryer are sealed with a sealing film on the bottle mouth, and some small holes are made in the sealing film to ensure that the sample can be brought into full contact with the ambient air. Samples placed at 60° C., or under lights or shading conditions are tightly capped (wherein the samples under shading conditions are packaged with a tin foil paper).

Setting [3] is: Shading lights, test at the same time with the visible lights + ultraviolet lights group.
Where [4] appears, read: Shading lights, test at the same time with the visible lights group.
Setting [5] is: Visible lights + Ultraviolet lights, illuminance reaches 200 W · hrs/m^2.
[6] abbreviates: Visible lights, illuminance reaches 1.2E+06 Lux · hrs.

On to `CCc1ccc([C@@H]2O[C@H](SC)[C@@H](O)[C@H](O)[C@H]2O)cc1Cc1ccc(C2=CCC(F)(F)CC2)cc1`, for which the Hygroscopicity classification entry in data set [1] is “almost no hygroscopicity”. Also, the “ΔW, weight gain caused by hygroscopicity” value in data set [1] was 0.1483%. The OGTT Blood glucose levels AUC0-2 hr was 1070 mmol/L/min in the data set with SD rats (1 mg/kg), 977 mmol/L/min with SD rats (3 mg/kg) and 881 mmol/L/min with SD rats (10 mg/kg). Besides, the “Effect on blood glucose level, AUC0-2hr, conclusion” value in the data set with SD rats (rat OGTT, in 2 hours) is “effectively and significantly reduce the blood glucose level”. Further, the Crystal form entry is “Crystal form A” in data set [2] (0 day); “Crystal form A” in data set [2] (60° C., 5 days); “Crystal form A” in data set [2] (60° C., 10 days); “Crystal form A” in data set [2] (60° C./75% RH, 1 months); “Crystal form A” in data set [2] (60° C./75% RH, 2 months); “Crystal form A” in data set [2] (60° C./75% RH, 3 months). The Crystal form entry was “Crystal form A” in data set [2] (92.5% RH, 5 days); “Crystal form A” in data set [2] (92.5% RH, 10 days); “Crystal form A” in data set [2] (setting [3]); “Crystal form A” in data set [2] (setting [4]); “Crystal form A” in data set [2] (setting [5]); “Crystal form A” in data set [2] (setting [6]). Also, the “Purity (area %)” value is reported as 96.48 area % in data set [2] (0 day); 96.38 area % in data set [2] (60° C., 5 days); 96.41 area % in data set [2] (60° C., 10 days); 96.31 area % in data set [2] (60° C./75% RH, 1 months); 96.39 area % in data set [2] (60° C./75% RH, 2 months); 96.37 area % in data set [2] (60° C./75% RH, 3 months). Further, the “Purity (area %)” value in data set [2] (92.5% RH, 5 days) amounted to 96.41 area %; in data set [2] (92.5% RH, 10 days), 96.47 area %; in data set [2] (setting [3]), 96.43 area %; in data set [2] (setting [4]), 96.44 area %; in data set [2] (setting [5]), 95.75 area %; in data set [2] (setting [6]) it was 96.29 area %. The “Solid stability, conclusion” value in data set [2] (all tested conditions of Table 3) was “Conclusion: The crystal forms A of compound of formula (I) has good stability”.

On to `CCOc1ccc(Cc2cc([C@@H]3O[C@H](SC)[C@@H](O)[C@H](O)[C@H]3O)ccc2Cl)cc1` [Sotagliflozin, reference compound], for which, in the data set on SD rats (3 mg/kg), the OGTT Blood glucose levels AUC0-2 hr worked out at 1050 mmol/L/min.
